From patent US20130011378A1, “Stable formulations of a hyaluronan-degrading enzyme” (priority 2011, published 2013)
Values belong to the compound of their own block, whether it stands above or below them.

Legend:
rHuPH20 [1] = biological target: T1, rHuPH20 (Homo sapiens, UniProt P38567); assay: Determination of hyaluronidase activity of rHuPH20, turbidimetric assay (Example 2, variant not specified); assay type: biochemical; conditions: for Effect on rHuPH20 enzymatic activity: stabilizer screening in rHuPH20/insulin formulation, semi-quantitative in comparison with NaCl, samples incubated at 30° C. for about one week
T1 construct: made in house; host or cells: CHO cells (DG44 CHO, HZ24 plasmid, clone 2B2)
T1 sequence (P38567 36-482): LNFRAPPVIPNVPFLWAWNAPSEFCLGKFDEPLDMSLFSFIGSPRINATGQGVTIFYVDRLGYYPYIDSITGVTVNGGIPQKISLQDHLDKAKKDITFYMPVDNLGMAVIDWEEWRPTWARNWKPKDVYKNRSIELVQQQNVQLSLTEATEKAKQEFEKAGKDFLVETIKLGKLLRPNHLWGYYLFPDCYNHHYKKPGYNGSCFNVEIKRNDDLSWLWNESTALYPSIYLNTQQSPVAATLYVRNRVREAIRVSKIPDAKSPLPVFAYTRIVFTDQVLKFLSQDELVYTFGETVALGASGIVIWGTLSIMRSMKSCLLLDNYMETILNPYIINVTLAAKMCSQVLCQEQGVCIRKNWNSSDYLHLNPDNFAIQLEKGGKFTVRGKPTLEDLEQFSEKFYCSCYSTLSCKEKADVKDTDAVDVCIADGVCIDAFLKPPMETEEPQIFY

[2] = Non-denaturing SEC: percent main peak / aggregates of insulin and rHuPH20; assay type: physicochemical
Protocol: Reference samples were stored in HPLC vials at 10° C. prior to use.
Samples were stored in HPLC vials at 10° C. prior to use, for up to 3 days.
0.5× Phosphate Buffered Saline (PBS) solution was prepared by diluting 10×PBS with HPLC grade water.
Insulin percent purity was expressed as percentage of the insulin main peak versus the total insulin peaks. The target specification is less than 2% high molecular weight protein, i.e., insulin aggregates.
SEC was performed using the following conditions: 1× Phosphate Buffered Saline (PBS), a Toso BioScience G2000 SWXL column, and a flow rate set at 1 mL/min. Data were collected as described above and means were reported and entered into the design table following the sample sequence provided by the DOE software.

rHuPH20 [3] = biological target: T1, rHuPH20; assay: RP-HPLC: rHuPH20 oxidation peaks (ox-1, ox-2); assay type: physicochemical; conditions: 0.02% surfactant, 30° C., 72 hours
Description: The stability of hyaluronan degrading enzymes in a composition, such as in the co-formulations provided herein, also can be assessed using other methods and assays known in the art. […] Percent recovery is the relative percentage of the hyaluronidase in the co-formulation over time and at various storage conditions, as compared to a reference sample. […] An increase in particle size and a decrease in the melting temperature indicates denaturation and subsequent aggregation of the hyaluronidase. […] Other methods known to one of skill in the art that can be used to determine the stability of the hyaluronidase in the co-formulations provided herein, include polyacrylamide gel electrophoresis (PAGE), immunoblotting, nuclear magnetic resonance (NMR) spectroscopy, mass spectrometry, circular dichroism (CD) and dye-based fluorescence assays.
The formulations varied in the surfactant and surfactant concentration and the buffer (either histidine or phosphate).
Methionine oxidation can be prevented by addition of free methionine as a scavenger to react with potential oxidative compounds.

[4] = RP-HPLC: insulin apparent solubility / percent recovery; conditions: stabilizer screening in rHuPH20/insulin formulation, semi-quantitative in comparison with NaCl; RP-HPLC, samples stored at 5° C.
Protocol: Apparent solubility was measured as the percent insulin recovery as compared to the initial formulations/conditions.
Samples were prepared by withdrawing 100 μL from each vial at every time point and centrifuging prior to loading. Samples were stored in an autosampler at 4° C. prior to use, and were considered stable for 3 days after preparation. All samples were tested in duplicate.
For insulin, 20 μL was injected for each HPLC run.
To determine the apparent solubility, the peak area of insulin/insulin analog main peak and desamido peak were integrated and combined together to calculate the percentage relative to the standards. […] The data were processed using Design-Expert® 7.0 (StatEase) and the “historical data” feature. Insulin percent purity was expressed as the percent of main insulin versus all insulin species.

[5] = 48 hours, 4° C., preservative levels of Table 22, in U/mL
[6] = t = 0, 100 μg/mL rHuPH20, pH 7.3, 140 mM NaCl, 0.01% polysorbate 80, preservative levels of Table 21, in U/mL
[7] = 35° C., Table 22 concentrations

Compound: N[C@@H](Cc1ccccc1)C(=O)O [L-Phenylalanine]
rHuPH20 activity (rHuPH20 [1]; 24 hours, 25° C., in U/mL): 12100 | rHuPH20 activity (rHuPH20 [1]; [5]): 12,540 | rHuPH20 activity (rHuPH20 [1]; 48 hours, 35° C., preservative levels of Table 22, in U/mL): 13,130 | rHuPH20 activity (rHuPH20 [1]; 5 days, 25° C., in U/mL): 11460 | rHuPH20 activity (rHuPH20 [1]; 6 days, 35° C., in U/mL): 10660 | rHuPH20 activity (rHuPH20 [1]; [6]): 13,420 | % Main rHuPH20 peak by non-denaturing SEC ([2]; 4° C., 1 day): 98.27% | % Main rHuPH20 peak by non-denaturing SEC ([2]; 4° C., Table 22 concentrations): 100.00% | % Main rHuPH20 peak by non-denaturing SEC ([2]; 35° C., 1 day): 98.86% | % Main rHuPH20 peak by non-denaturing SEC [2, 7]: 99.80%

Compound: Cc1cccc(O)c1 [m-cresol]
rHuPH20 activity (rHuPH20 [1]; [5]): 10,950 | rHuPH20 activity (rHuPH20 [1]; 48 hours, 35° C., preservative levels of Table 22): <LOQ | Enzymatic Activity of rHuPH20 (rHuPH20 [1]; preservative 0.05%, 1 Month, 25° C., insulin/rHuPH20 formulation pH 7.1, 140 mM NaCl): 2103 U/mL | Enzymatic Activity of rHuPH20 (rHuPH20 [1]; preservative 0.05%, 1 Week, 35° C.): 2019 U/mL | Enzymatic Activity of rHuPH20 (rHuPH20 [1]; preservative 0.05%, 2 Weeks, 35° C.): 1955 U/mL | Enzymatic Activity of rHuPH20 (rHuPH20 [1]; preservative 0.1%, 1 Month, 25° C.): 2188 U/mL | Enzymatic Activity of rHuPH20 (rHuPH20 [1]; preservative 0.1%, 1 Week, 35° C.): 2147 U/mL | Enzymatic Activity of rHuPH20 (rHuPH20 [1]; preservative 0.1%, 2 Weeks, 35° C.): 2069 U/mL | Enzymatic Activity of rHuPH20 (rHuPH20 [1]; preservative 0.2%, 1 Month, 25° C.): 2013 U/mL | Enzymatic Activity of rHuPH20 (rHuPH20 [1]; preservative 0.2%, 1 Week, 35° C.): 466 U/mL | Enzymatic Activity of rHuPH20 (rHuPH20 [1]; preservative 0.2%, 2 Weeks, 35° C.): 185 U/mL | Enzymatic Activity of rHuPH20 (rHuPH20 [1]; preservative 0.4%, 1 Month, 25° C.): <LOD | Enzymatic Activity of rHuPH20 (rHuPH20 [1]; preservative 0.4%, 1 Week, 35° C.): <LOD | Enzymatic Activity of rHuPH20 (rHuPH20 [1]; preservative 0.4%, 2 Weeks, 35° C.): <LOD | % Main rHuPH20 peak by non-denaturing SEC ([2]; 4° C., Table 22 concentrations): 100.00% | % Main rHuPH20 peak by non-denaturing SEC [2, 7]: 0.834%

Compound: C[CH2][Hg][S]c1ccccc1C(=O)[O-].[Na+] [Thimerosal]
rHuPH20 activity (rHuPH20 [1]; 24 hours, 25° C., in U/mL): 8990 | rHuPH20 activity (rHuPH20 [1]; 5 days, 25° C., in U/mL): 8960 | rHuPH20 activity (rHuPH20 [1]; 6 days, 35° C., in U/mL): 10070 | rHuPH20 activity (rHuPH20 [1]; [6]): 10,290 | % Main rHuPH20 peak by non-denaturing SEC ([2]; 4° C., 1 day): 98.59% | % Main rHuPH20 peak by non-denaturing SEC ([2]; 35° C., 1 day): 98.31%

Compound: NCCCC[C@H](N)C(=O)O [Lysine]
Effect on rHuPH20 enzymatic activity (rHuPH20 [1]): No effect | Effect on insulin solubility [4]: No effect

Compound: COC(=O)c1ccc(O)cc1 [methylparaben]
Enzymatic Activity of rHuPH20 (rHuPH20 [1]; preservative 0.3%, 1 Week, 35° C.): 730 U/mL | % Main rHuPH20 peak by non-denaturing SEC ([2]; 4° C., Table 22 concentrations): 100.00% | % Main rHuPH20 peak by non-denaturing SEC [2, 7]: 96.91%

Compound: C[N+](C)(C)[O-] [Trimethylamine oxide (TMAO)]
Effect on rHuPH20 enzymatic activity (rHuPH20 [1]): No effect | Effect on insulin solubility [4]: No effect

Compound: O=C([O-])c1ccccc1.[Na+] [Sodium Benzoate]
Effect on rHuPH20 enzymatic activity (rHuPH20 [1]): No effect

Further lines, results first:

% of Oxidation Peak 1 of rHuPH20 (rHuPH20 [3]; Methionine 0 mM): 4.01% | % of Oxidation Peak 1 of rHuPH20 (rHuPH20 [3]; Methionine 2 mM): 3.43% | % of Oxidation Peak 1 of rHuPH20 (rHuPH20 [3]; Methionine 10 mM): 3.37% | % of Oxidation Peak 1 of rHuPH20 (rHuPH20 [3]; Methionine 50 mM): 3.38%
Compound: Polysorbate 20

Effect on rHuPH20 enzymatic activity (rHuPH20 [1]): No effect
Compound: O[C@H]1[C@H](O)[C@@H](O)[C@H](O)[C@@H](O)[C@H]1O [Inositol]

Effect on rHuPH20 enzymatic activity (rHuPH20 [1]): No effect
Compound: OC[C@@H](O)[C@@H](O)[C@H](O)[C@H](O)CO [Mannitol]

Effect on rHuPH20 enzymatic activity (rHuPH20 [1]): No effect | Effect on insulin solubility [4]: No effect
Compound: C[N+](C)(C)CC(=O)O [Betaine]

Effect on rHuPH20 enzymatic activity (rHuPH20 [1]): No effect
Compound: OC[C@H]1O[C@@](CO)(O[C@H]2O[C@H](CO)[C@@H](O)[C@H](O)[C@H]2O)[C@@H](O)[C@@H]1O [Sucrose]
